Reference: US20260130933A1, “PHARMACEUTICAL COMPOSITION FOR PREVENTION OR TREATMENT OF NEPHROPATHY AND/OR DIABETES MELLITUS, COMPRISING ENAVOGLIFLOZIN” (DAEWOONG PHARMACEUTICAL CO., LTD., priority 2022, published 2026)

Assay: Example 2: phase 3 trial, enavogliflozin 0.3 mg vs dapagliflozin 10 mg once a day for 24 weeks added to metformin in patients with type 2 diabetes (same efficacy, exploratory and safety endpoints)
Type: in vivo, human
Settings: for Non-inferiority (UCI < 0.35%): HbA1c change at week 24, vs dapagliflozin
Experimental: Subjects who met the inclusion/exclusion criteria were administered a placebo of the clinical trial drug under single-blind (subject blinding) conditions during a 2-week run-in period while continuing to receive metformin. […] The randomized subjects were administered two tablets of the clinical trial drug for each administration group once a day, and then visited the institution at weeks 6, 12, 18, and 24 during the 24-week administration period to conduct efficacy and safety evaluations.
• 1. Change in HbA1c at week 24 after administration of clinical trial drug compared to Visit 2 (randomization)
• 1. Change in HbA1c at each time point of weeks 6, 12, and 18 after administration of clinical trial drug compared to Visit 2 (randomization) • 2. Change in FPG at each time point of weeks 6, 12, 18, and 24 after administration of clinical trial drug compared to Visit 2 (randomization) • 3. Proportion of subjects achieving HbA1c<7% at each time point of weeks 6, 12, 18, and 24 after administration of clinical trial drug • 4. Proportion of subjects achieving HbA1c<6.5% at each time point of weeks 6, 12, 18, and 24 after administration of clinical trial drug • 5. Proportion of subjects achieving therapeutic response (HbA1c change (HbA1c at Visit 2-HbA1c at each evaluation time point)>0.5% or HbA1c<7% at each evaluation time point compared to Visit 2 (randomization)) at each time point of weeks 6, 12, 18 and 24 after administration of clinical trial drug
• 1. Change in fasting c-peptide at each time point of weeks 6, 12, 18, and 24 after administration of clinical trial drug compared to Visit 2 (randomization) • 2. Change in body weight at each time point of weeks 6, 12, 18, and 24 after administration of clinical trial drug compared to Visit 2 (randomization) • 3. Change in fasting lipid concentration (total cholesterol, LDL-C, HDL-C, and triglycerides) at each time point of weeks 6, 12, 18, and 24 after administration of clinical trial drug compared to Visit 2 (randomization) • 4. Changes in systolic or diastolic blood pressure at each time point of weeks 6, 12, 18, and 24 after administration of clinical trial drug compared to Visit 2 (randomization) • 5. Changes in β-cell function and insulin resistance measured by HOMA-β and HOMA-IR at each time point of weeks 6, 12, 18, and 24 after administration of clinical trial drug compared to Visit 2 (randomization) • 6. Changes in renal function-related indicators (UACR, UGCR) measured by UACR at each time point of weeks 6, 12, 18, and 24 after administration of clinical trial drug compared to Visit 2 (randomization) • 7. Changes in obesity-related indicators (adiponectin, leptin) at each time point of weeks 6, 12, 18, and 24 after administration of clinical trial drug compared to Visit 2 (randomization)

[1] = Baseline, modified per-protocol set 1, enavogliflozin 0.3 mg, dapagliflozin 10 mg
[2] = Baseline, per-protocol set, enavogliflozin 0.3 mg, dapagliflozin 10 mg
[3] = Week 6, PPS, enavogliflozin minus dapagliflozin

OC[C@H]1O[C@@H](c2cc(Cc3ccc(C4CC4)cc3)c(Cl)c3c2CCO3)[C@H](O)[C@@H](O)[C@@H]1O [Enavogliflozin, (2S,3R,4R,5S,6R)-2-(7-chloro-6 (4-cyclopropylbenzyl)-2,3-dihydrobenzofuran-4-yl)-6-(hydroxymethyl)tetrahydro-2H-pyran-3,4,5-triol]
Incidence of serious adverse drug reactions (24 weeks): 1 case
Incidence of adverse events or serious adverse events between the test group and the control (24 weeks, vs dapagliflozin): no statistically significant differences
Adiponectin, Mean (SD) (Baseline, PPS): 6.96 µg/mL
Adiponectin, Median (Baseline, PPS): 5.99 µg/mL
HOMA-IR, Mean (SD) (Baseline, PPS): 3.45
HOMA-IR, Median (Baseline, PPS): 2.67
HOMA-β, Mean (SD) (Baseline, PPS): 45.53
HOMA-β, Median (Baseline, PPS): 35.00
Leptin, Mean (SD) (Baseline, PPS): 12.21 ng/mL
Leptin, Median (Baseline, PPS): 8.00 ng/mL
UACR, Mean (SD) (Baseline, PPS): 38.19 g/kg
UACR, Median (Baseline, PPS): 10.10 g/kg
UGCR, Mean (SD) (Baseline, PPS): 1.54 mg/mg
UGCR, Median (Baseline, PPS): 0.14 mg/mg
HDL-C, Mean (SD) (Baseline, mPPS1): 50.94(10.85) mg/dL
HDL-C, Median (Baseline, mPPS1): 50.00 mg/dL
LDL-C, Mean (SD) (Baseline, mPPS1): 86.52(30.53) mg/dL
LDL-C, Median (Baseline, mPPS1): 83.00 mg/dL
Triglycerides, Mean (SD) (Baseline, mPPS1): 122.10(85.91) mg/dL
Triglycerides, Median (Baseline, mPPS1): 101.00 mg/dL
Diastolic blood pressure, Mean (SD) (Baseline, mPPS2): 77.04 mmHg
Diastolic blood pressure, Median (Baseline, mPPS2): 77.00 mmHg
Systolic blood pressure, Mean (SD) (Baseline, mPPS2): 129.72(13.64) mmHg
Systolic blood pressure, Median (Baseline, mPPS2): 130.00 mmHg
fasting Total cholesterol, Mean (SD) [1]: 151.43(32.91) mg/dL
fasting Total cholesterol, Median [1]: 150.00 mg/dL
FPG, Mean (SD) [2]: 145.35 mg/dL
FPG, Median [2]: 147.00 mg/dL
HbA1c, Mean (SD) [2]: 7.75%
HbA1c, Median [2]: 7.49%
body weight, Mean (SD) [2]: 70.17(11.06) kg
body weight, Median [2]: 67.40 kg
fasting c-peptide, Mean (SD) [2]: 0.72(0.29) ng/mL
fasting c-peptide, Median [2]: 0.66 ng/mL
Non-inferiority (UCI < 0.35%): Yes
Non-inferiority (UCI < 0.35%) (listed as enavogliflozin): not inferior
Adiponectin change from baseline, ANCOVA LS mean (SE) (Week 6, PPS): 0.92 µg/mL
Adiponectin change from baseline, Mean (SD) (Week 6, PPS): 0.84 µg/mL
Adiponectin change from baseline, Median (Week 6, PPS): 0.58 µg/mL
Adiponectin, Mean (SD) (Week 6, PPS): 7.8 µg/mL
Adiponectin, Median (Week 6, PPS): 6.87 µg/mL
HOMA-IR change from baseline, ANCOVA LS mean (SE) (Week 6, PPS): −1.47
HOMA-IR change from baseline, Mean (SD) (Week 6, PPS): −1.35
HOMA-IR change from baseline, Median (Week 6, PPS): −0.91
HOMA-IR, Mean (SD) (Week 6, PPS): 2.10
HOMA-IR, Median (Week 6, PPS): 1.72
HOMA-β change from baseline, ANCOVA LS mean (SE) (Week 6, PPS): 7.22
HOMA-β change from baseline, Mean (SD) (Week 6, PPS): 5.87
HOMA-β change from baseline, Median (Week 6, PPS): 8.10
HOMA-β, Mean (SD) (Week 6, PPS): 51.39
HOMA-β, Median (Week 6, PPS): 43.00
Leptin change from baseline, ANCOVA LS mean (SE) (Week 6, PPS): -2.43 ng/mL
Leptin change from baseline, Mean (SD) (Week 6, PPS): -2.54 ng/mL
Leptin change from baseline, Median (Week 6, PPS): -1.36 ng/mL
Leptin, Mean (SD) (Week 6, PPS): 9.66 ng/mL
Leptin, Median (Week 6, PPS): 5.99 ng/mL
UACR change from baseline, ANCOVA LS mean (SE) (Week 6, PPS): -12.75 g/kg
UACR change from baseline, Mean (SD) (Week 6, PPS): -11.44 g/kg
UACR change from baseline, Median (Week 6, PPS): 0.00 g/kg
UACR, Mean (SD) (Week 6, PPS): 26.76 g/kg
UACR, Median (Week 6, PPS): 11.40 g/kg
UGCR change from baseline, ANCOVA LS mean (SE) (Week 6, PPS): 65.72 mg/mg
UGCR change from baseline, Mean (SD) (Week 6, PPS): 63.13 mg/mg
UGCR change from baseline, Median (Week 6, PPS): 57.91 mg/mg
UGCR, Mean (SD) (Week 6, PPS): 64.66 mg/mg
UGCR, Median (Week 6, PPS): 58.45 mg/mg
HOMA-IR change from baseline, LS mean difference [3]: −0.16
HOMA-β change from baseline, LS mean difference [3]: 9.01
UACR change from baseline, LS mean difference [3]: -20.88 g/kg
